Source: ChEMBL document CHEMBL1144213, “Synthesis and antiproliferative activity of unnatural enantiomers of 7-epi-goniofufurone and crassalactone C” (Bioorg Med Chem Lett, 2008)
pIC50: −log10 of the molar value.

What was measured:
HL-60 = assay: Cytotoxicity against human HL-60 cells after 72 hrs by MTT assay; type: functional, cell-based; conditions: HL-60, 72 h
Raji = assay: Cytotoxicity against human Raji cells after 72 hrs by MTT assay; type: functional, cell-based
Jurkat = assay: Cytotoxicity against human Jurkat cells after 72 hrs by MTT assay; type: functional, cell-based
MRC5 = assay: Cytotoxicity against human MRC5 cells after 72 hrs by MTT assay; type: cell-based; conditions: MRC5, 72 h
HeLa = assay: Cytotoxicity against human HeLa cells after 72 hrs by MTT assay; type: functional, cell-based

| SMILES | pIC50 (HL-60) | pIC50 (Raji) | pIC50 (Jurkat) | pIC50 (MRC5) | pIC50 (HeLa) |
| --- | --- | --- | --- | --- | --- |
| O=C1C[C@H]2O[C@H]([C@@H](O)c3ccccc3)[C@H](O)[C@H]2O1 | 4.66 | 5.90 | 4.73 | < 4.00 | 6.05 |
| O=C1C[C@@H]2O[C@@H]([C@H](O)c3ccccc3)[C@@H](O)[C@@H]2O1 | 4.86 | < 4.00 | 7.30 | < 4.00 | 5.36 |
| O=C1C[C@@H]2O[C@@H]3[C@@H](O[C@H]3c3ccccc3)[C@@H]2O1 | 7.60 | 6.35 | 4.55 | < 4.00 | 6.01 |
| O=C(/C=C/c1ccccc1)O[C@H](c1ccccc1)[C@H]1O[C@@H]2CC(=O)O[C@@H]2[C@H]1O [(+)-CRASSALACTONE C] | < 4.00 | 4.81 | 4.59 | < 4.00 | 4.95 |
| O=C(/C=C/c1ccccc1)O[C@@H](c1ccccc1)[C@@H]1O[C@H]2CC(=O)O[C@H]2[C@@H]1O [CRASSALACTONE C (ENANTIOMERIC MIX)] | 5.73 | 6.24 | 4.80 | < 4.00 | 5.93 |
| COc1cccc2c1C(=O)c1c(O)c3c(c(O)c1C2=O)C[C@@](O)(C(=O)CO)C[C@@H]3O[C@H]1C[C@H](N)[C@H](O)[C@H](C)O1 [DOXORUBICIN] | 6.04 |  | 7.52 |  |  |
